Source: article PMC3404012, “N-Terminally Glutamate-Substituted Analogue of Gramicidin A as Protonophore and Selective Mitochondrial Uncoupler” (PLoS ONE, 2012)

What was measured:
[1] = test system: rat kidney cell culture (renal tubular epithelium cells); assay type: cell-based
Method: (§1) In subsequent series of experiments, the uncoupling action of [Glu1]gA was tested in rat kidney cell culture loaded with the potential sensitive dye tetramethylrhodamine ethyl ester (TMRE). […] By contrast, the parent gA depolarized mitochondria in cells at substantially higher concentrations starting from 0.1 mg/ml (Fig. 2C). […] In particular, treatment with 50 µg/ml gA caused about 80% cell death, while [Glu1]gA provoked only about 15% cell death. […] The increased effective concentrations of the [Glu1]gA in cell culture with respect to those with isolated mitochondria (Fig. 1) could be attributed to poor peptide permeation through plasma membrane.
Confocal images of cultured renal cells loaded with TMRE in control (A) and after treatment with 0.01 mg/ml [Glu1]gA (B). Diagram (C) presents the mean intensity of TMRE fluorescence through 10 confocal images for each [Glu1]gA (solid bars) or gA (hatched bars) concentration.
Kidneys were excised aseptically from 3–7 day old rats, then homogenized and placed in balanced Hanks solution at pH 7.4. After several washes the dispensed tissue was placed in 0.1% collagenase and incubated for 20–30 min at 37°C. Large pieces were removed, and cells were sedimented by gentle centrifugation (50 g) for 3 min. The pellet was resuspended in DMEM/F-12 1:1 containing 10% fetal calf serum (FCS) and seeded in culture plates and glass-bottom dishes. Cells were cultivated in a CO2 (5%) incubator for 1–2 days before the experiments. The gA or [Glu1]gA solution was added to the cultured epithelial cells to appropriate concentration and incubated for 10 min at 37°C in DMEM/F-12 medium containing 10 mM Hepes-NaOH. Next, cells were incubated with 100 nM TMRE (Invitrogen, USA) or 1 µM Lysotracker Green (Invitrogen, USA) for 30 min followed by washing in DMEM/F-12. Then renal tubular epithelial cells were imaged with an LSM510 inverted confocal microscope (Carl Zeiss Inc., Jena, Germany). Analysis of fluorochrome incorporation was performed in glass-bottom dishes (MatTek Corp., USA) with excitation at 488 and 543 nm and emission collected at 510–530 and 560–590 nm, for Lysotracker and TMRE, correspondingly. To minimize the contribution of photo-induced mitochondria/cell damage to the relative fluorescence intensities, image analysis was performed on the average of the first four scans only. Images were processed using ImageJ software (NIH, Bethesda, MD, USA).

[2] = Single-channel recordings on planar bilayer lipid membrane; settings: DPhPC/decane BLM, 100 mM HCl; for single-channel conductance: from current histograms
Method: Proton channels formed by gA can be observed by measuring electric current across a planar bilayer lipid membrane (BLM), if the experiments are performed in the acidic pH range [19], [20], [26], [50]. Figure 6 presents typical recordings of fluctuations of transmembrane current induced by gA and [Glu1]gA (panels A and D of Fig. 6) which were obtained under the same conditions. The single-channel conductance of [Glu1]gA (150 pS) was close to that of gA (140 pS) as judged from the current histograms (panels B and E), while the single-channel lifetime of the analogue (about 16 ms as estimated from the exponential fit to open channel duration histogram, panel F of Fig. 6) was much shorter than that of gA (116 ms, panel C).
Figure 6 Single-channel recordings (A, D) and the corresponding current histograms (B, E) of gramicidin A ([…], A, B, and C) and [Glu1]gA (2 nanogram/ml, D, E, and F) at a voltage of 100 mV applied to the DPhPC/decane membrane. The solution was 100 mM HCl. (C, F) Open state duration histograms fitted by a single exponential with a time constant of 116 ms (C) and 16 ms (F). The records were filtered at 100 Hz (A, B, and C) or 1000 Hz (D, E, and F).
(§2) Planar bilayer lipid membranes (BLM) were formed from a 2% solution of diphytanoylphosphatidylcholine (DPhPC) (Avanti Polar Lipids, Alabaster, AL) in n-decane on a hole in a Teflon partition (0.5-mm diameter) separating two compartments of a cell containing aqueous buffer solutions [64].The electric current (I) was recorded under voltage-clamp conditions. Voltage was applied to BLMs with Ag-AgCl electrodes placed directly into the cell. The current measured by means of a patch-clamp amplifier (Warner Instruments, Hamden, CT, model BC-525C) was digitized using an NI-DAQmx (National Instruments, Austin, TX) and analyzed with a personal computer with the use of WinWCP Strathclyde Electrophysiology Software designed by J. Dempster (University of Strathclyde, UK).

[3] = test system: rat liver mitochondria (inner mitochondrial membrane potential); test: Mitochondrial membrane potential measured by safranine O fluorescence; settings: for decrease of mitochondrial membrane potential: isolated rat liver mitochondria 0.4 mg/ml protein, 5 mM succinate + 1 µM rotenone, 5 nM (about 10 nanogram/ml) peptide, safranine O 10 µM, pH 7.4; for series of the uncoupling potency (relative drop in membrane potential, concentration dependence): isolated rat liver mitochondria, measured at 300 s after peptide addition, safranine O
Method: To assess the effect of gramicidin derivatives on the mitochondrial membrane potential, we assayed the latter with the potential-dependent dye safranine O. The fluorescence of this dye (at a high concentration) is known to drop with increasing the mitochondrial membrane potential and rise upon the addition of protonophores [42], [47].
Control, no other additions. gA, [Glu1]gA, [Glu3]gA, [Lys1]gA, and [Lys3]gA show traces after the addition of 5 nM (i.e. about 10 nanogram/ml) of a corresponding peptide at t = 0 s. Trace “excess [Glu1]gA” was measured with 1 µg/ml peptide. Panel B. Dose dependence of the effect of [Glu1]gA on mitochondrial membrane potential.
Experiments were performed on outbred white male rats (180–200 g) fed ad libitum. […] Rat liver mitochondria were isolated by differential centrifugation [60] in a medium containing 250 mM sucrose, 10 mM MOPS, 1 mM EGTA, and bovine serum albumin (0.1 mg/ml), pH 7.4. The final washing was preformed in the medium of the same composition. Protein concentration was determined using bicinchoninic acid as described in [61].
Safranine O (10 µM) was used as a membrane potential probe [42]. Fluorescence intensity at 580 nm (excitation at 520 nm) was measured with a Panorama Fluorat 02 spectrofluorimeter (Lumex, Russia). The medium for measurements contained 300 mM sucrose, 20 mM MOPS, 0.5 mM EDTA, 0.5 mg/ml BSA, pH 7.4. Mitochondrial protein concentration was 0.4 mg/ml.

[4] = test system: lysosomes of rat kidney cells; test: Lysosome integrity and pH gradient by Lysotracker Green; assay type: cell-based; settings: 0.1 mg/ml peptide, 1 µM Lysotracker Green
Method: In further experiments, we tested the interaction of [Glu1]gA with lysosomes of rat kidney cells by using the dye Lysotracker Green known to accumulate in highly acidic interior of lysosomes. […] Thus, [Glu1]gA appeared to interact specifically with mitochondrial membranes leading to their partial depolarization.
Figure 4 Micrographs of rat kidney cell culture loaded with Lysotracker Green in the absence (A), and in the presence of 0.1 mg/ml (B) of [Glu1]gA.
Kidneys were excised aseptically from 3–7 day old rats, then homogenized and placed in balanced Hanks solution at pH 7.4. After several washes the dispensed tissue was placed in 0.1% collagenase and incubated for 20–30 min at 37°C. Large pieces were removed, and cells were sedimented by gentle centrifugation (50 g) for 3 min. The pellet was resuspended in DMEM/F-12 1:1 containing 10% fetal calf serum (FCS) and seeded in culture plates and glass-bottom dishes. Cells were cultivated in a CO2 (5%) incubator for 1–2 days before the experiments. The gA or [Glu1]gA solution was added to the cultured epithelial cells to appropriate concentration and incubated for 10 min at 37°C in DMEM/F-12 medium containing 10 mM Hepes-NaOH. […] To minimize the contribution of photo-induced mitochondria/cell damage to the relative fluorescence intensities, image analysis was performed on the average of the first four scans only. […]

rat liver mitochondria = test: Respiration of isolated mitochondria (Clark-type oxygen electrode); settings: 25°C, pH 7.4, 100 nM = 200 nanogram/ml, data not shown
[5] = Induction of electrical current across planar BLM with and without liposomes; settings: for effect of liposomes on induction of BLM current: liposomes 1 µg/ml DPhPC, peptide and liposomes at one side, gA 2 nanogram/ml, [Glu1]gA 200 nanogram/ml, 100 mM KCl, 10 mM Tris, 10 mM MES, pH 7.0, 50 mV
Description: The difference in efficacy of gA and [Glu1]gA described here in a variety of systems could be associated with different abilities of the peptides to redistribute between membrane structures and/or their diverse permeability through membranes. To cause a reduction of an electrical potential difference across the inner mitochondrial membrane, peptide molecules must penetrate through the outer membrane in the case of isolated mitochondria, and additionally through the plasma membrane in the case of cells. While encountering with a series of membrane structures, e.g. endosomes, on their way from the plasma to the mitochondrial membrane, peptides may undergo numerous cycles of membrane binding and desorption. To study such a process in a model system, we measured the effect of liposome addition on the time course of the induction of electrical current across a planar BLM by gA and [Glu1]gA. In these experiments we added liposomes and peptides at one side of BLM in order to mimic the addition of the peptides to mitochondria and cells.
Figure 7 Effect of liposomes (1 µg/ml DPhPC) on the induction of electrical current on planar lipid bilayer by gA (2 nanogram/ml, panel A) and [Glu1]gA (200 nanogram/ml, panel B). The peptides and liposomes were added at one side of the membrane. The solution was 100 mM KCl, 10 mM Tris, 10 mM MES, pH = 7.0, BLM voltage was 50 mV.
as §2, with “Voltage was applied to BLMs with Ag-AgCl electrodes placed directly into the cell.” left out

[6] = Dissipation of pH gradient in pyranine-loaded liposomes; settings: 2 µg/ml peptide
Method: Figure 5 Dissipation of the pH gradient on membranes of pyranine-loaded liposomes by gA and [Glu1]gA (both 2 µg/ml). Inner liposomal pH was estimated from pyranine fluorescence intensity measured at 505 nm upon excitation at 455 nm. Nigericin (1 µM) was added at 400–420 s to equilibrate the pH. Control, a record without peptides.
The lumenal pH of the liposomes was assayed with pyranine as described in [11] by a slightly modified procedure of [63]. To prepare pyranine-loaded liposomes, lipids (5 mg egg yolk phosphatidylcholine and 1 mg cholesterol) in a chloroform suspension were dried in a round-bottom flask under a stream of nitrogen. The lipids were then resuspended in buffer (100 mM KCl, 20 mM MES, 20 mM MOPS, 20 mM Tricine titrated with KOH to pH 6.0) containing 0.5 mM pyranine. The suspension was vortexed and then freeze-thawed three times. Unilamellar liposomes were prepared by extrusion through 0.1-µm-pore size Nucleopore polycarbonate membranes using an Avanti Mini-Extruder. The unbound pyranine was then removed by passage through a Sephadex G-50 coarse column equilibrated with the same buffer solution. […] The pH was estimated from the intensities of fluorescence measured at 505 nm upon excitation at 455 nm, as monitored with the Panorama Fluorat 02 spectrofluorimeter. At the end of each recording, 1 µM nigericin was added to dissipate the remaining pH gradient.

[7] = test system: cultured renal tubular cells; test: MTT cell viability test; assay type: cell-based; settings: 24 h
Method: as §1
Figure 3 Viability of cultured renal cells according to the MTT test after 24 h treatment with appropriate concentration of [Glu1]gA or gA in culture medium without serum. Experiments were performed 2 times in which 10 wells per each concentration were analyzed.
Cell viability was evaluated by a widely used methyl thiazol tetrazolium (MTT) test. […] Then the dye solution was removed, 50 µl DMSO per well was added and absorbance at 540 nm was measured. Experiments were performed twice in which 10 wells per each concentration were analyzed.

HCO-EGALAVVVWLWLWLW-NH(CH2)2OH [[Glu1]gA]
effective concentrations in cells relative to isolated mitochondria ([1]; cells versus isolated mitochondria): higher in cells than in mitochondria by three orders of magnitude
depolarizing concentrations in cell culture relative to gA ([1]; mitochondria in cell culture): by an order of magnitude lower than those of gA
decrease in the mitochondrial membrane potential (TMRE fluorescence) ([1]; rat kidney cell culture, 10 µg/ml (about 5 µM) peptide, 10 min at 37°C, then 100 nM TMRE 30 min): more than a two-fold decrease
depolarization of mitochondria in cells ([1]; rat kidney cells, 0.1 mg/ml peptide): maximal depolarization of mitochondria
single-channel conductance ([2]; 100 mV): 150 pS
concentration required to observe single channels, relative to gA ([2]; symmetrical addition): much higher (approx. by two orders of magnitude)
decrease of mitochondrial membrane potential [3]: most efficient in decreasing the mitochondrial membrane potential
series of the uncoupling potency (relative drop in membrane potential, concentration dependence) [3]: [Glu1]gA > = gA > [Glu3]gA > [Lys3]gA > [Lys1]gA
lysosome integrity and pH gradient across lysosomal membranes (Lysotracker fluorescence intensity) [4]: No change
concentration stimulating mitochondrial respiration up to the level of fully uncoupled respiration (rat liver mitochondria): higher than 100 nM
effect of liposomes on induction of BLM current [5]: accelerated many fold the induction of the current
concentration required to induce current similar to that of gA, one-sided addition ([5]; planar BLM, peptide added from one side of the membrane): about two orders of magnitude higher
rate of pH gradient dissipation (enhancement of liposome-entrapped pyranine fluorescence) [6]: slower than that provoked by the parent peptide gA

HCO-KGALAVVVWLWLWLW-NH(CH2)2OH [[Lys1]gA]
series of the uncoupling potency (relative drop in membrane potential, concentration dependence) [3]: [Glu1]gA > = gA > [Glu3]gA > [Lys3]gA > [Lys1]gA

HCO-VGELAVVVWLWLWLW-NH(CH2)2OH [[Glu3]gA]
series of the uncoupling potency (relative drop in membrane potential, concentration dependence) [3]: [Glu1]gA > = gA > [Glu3]gA > [Lys3]gA > [Lys1]gA

HCO-VGKLAVVVWLWLWLW-NH(CH2)2OH [[Lys3]gA]
series of the uncoupling potency (relative drop in membrane potential, concentration dependence) [3]: [Glu1]gA > = gA > [Glu3]gA > [Lys3]gA > [Lys1]gA

gramicidin A [gA, reference compound]
concentration from which mitochondria in cells are depolarized ([1]; rat kidney cell culture, TMRE): ≥ 0.1 mg/mL
single-channel lifetime (open state duration, single-exponential time constant) ([2]; 100 mV): 116 ms
single-channel conductance ([2]; 100 mV): 140 pS
cell death (MTT) ([7]; 50 µg/ml peptide, DMEM/F12 without serum, 2 experiments, 10 wells per concentration): about 80%
concentration limit to which certain toxicity is seen (MTT) ([7]; medium without serum): ≥ 100 ng/mL
decrease of mitochondrial membrane potential [3]: most efficient in decreasing the mitochondrial membrane potential
series of the uncoupling potency (relative drop in membrane potential, concentration dependence) [3]: [Glu1]gA > = gA > [Glu3]gA > [Lys3]gA > [Lys1]gA
effect of liposomes on induction of BLM current [5]: somewhat slower in the presence of liposomes
